Laboratory results: patent US10947188B2, “Small molecule ferroptosis inducers” (THE TRUSTEES OF COLUMBIA UNIVERSITY IN THE CITY OF NEW YORK, priority 2016, dated 2021)

Biological target: T1, truncated human SQS (Homo sapiens, UniProt P37268)
T1 construct: truncated human squalene synthase (SQS 31-370) in pET28a expression vector; made in house; host or cells: Escherichia coli BL21-Gold (DE3)
T1 sequence (P37268 31-370): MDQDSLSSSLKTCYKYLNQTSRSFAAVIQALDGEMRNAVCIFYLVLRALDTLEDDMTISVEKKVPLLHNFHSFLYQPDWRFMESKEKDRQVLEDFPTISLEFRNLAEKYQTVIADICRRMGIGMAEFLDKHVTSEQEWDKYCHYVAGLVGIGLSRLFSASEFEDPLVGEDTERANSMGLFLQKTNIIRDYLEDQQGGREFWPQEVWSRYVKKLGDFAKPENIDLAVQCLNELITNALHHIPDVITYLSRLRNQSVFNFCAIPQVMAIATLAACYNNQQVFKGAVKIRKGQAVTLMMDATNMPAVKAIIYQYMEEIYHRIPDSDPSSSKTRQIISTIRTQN
Experiment: SQS competition assay with purified truncated SQS, FIN56 and active probe
Format: binding
Conditions: pre-incubation with 100 μM FIN56 for two hours
Procedure: Bacterial expression and purification of truncated human SQS for competition assay. The plasmid encoding the truncated human squalene synthase (SQS 31-370) in pET28a expression vector, kindly provided by Chia-I Liu and Andrew H. J. Wang (Academia Sinica, Taiwan), was confirmed by DNA sequencing (Gene Wiz, Inc.) and then used to transform Escherichia coli BL21-Gold (DE3) competent cells (Agilent Technologies). The cells with the construct were grown in LB media supplemented with 100 μg/mL […] at 37° C. until the OD600 reached 1. Protein expression was induced with 0.5 mM isopropyl β-D-thiogalactoside at 17° C. overnight (12-13 h). Cells were pelleted (4,000 g, 20 min, 4° C.) and lysed by sonication in SQS buffer (50 mM Tris, pH 7.4, 250 mM NaCl, 5 mM imidazole, 5 mM MgCl2, 1 mM TCEP). Cell lysate was then centrifuged at 15,000 g for 45 min at 4° C. The supernatant was loaded onto a chromatography column containing Ni Sepharose 6 Fast Flow beads (GE Life Sciences) equilibrated with SQS buffer. After two washes and one nonspecific wash of the beads, the bound SQS was eluted with 250 mM imidazole in the same buffer. The purity of eluted fractions was verified by SDS-PAGE as more than 90% pure. The fractions containing SQS were concentrated, flash-frozen, and stored at −80° C.
SQS competition assay with purified truncated SQS, FIN56, and active probe. […]

- competition of SQS binding to active affinity probe: efficiently suppressed
SMILES: O=S(=O)(NC1CCCCC1)c1ccc2c(c1)C(=NO)c1cc(S(=O)(=O)NC3CCCCC3)ccc1-2 [FIN56, N2,N7-dicyclohexyl-9-(hydroxyimino)-9H-fluorene-2,7-disulfonamide]
